According to PubChem BioAssay AID1996:
Values after ≈ are worked out from the molar mass of the structure shown.

Conditions: buffer; pH 7.4; 200.0 µM

| Structure (SMILES) | solubility kinetic |
| --- | --- |
| c1ccc2c(c1)nc(N1CCOCC1)c1ccccc12 | 14.9 µg/mL (≈ 56.4 µM) |
| O=C(NCc1cccnc1)C1CCN(S(=O)(=O)c2cc([N+](=O)[O-])ccc2Cl)CC1 | > 65.8 µg/mL |
| COc1ccc2c(c1)-c1nc(/N=C/c3c(O)ccc4ccccc34)sc1CC2 | 27.1 µg/mL (≈ 70.1 µM) |
| Cc1ccc(NC(=O)c2ccc(=O)[nH]c2)cc1S(=O)(=O)N1CCCCCC1 | > 58.4 µg/mL |
| O=C(Nc1nccs1)c1cncc(Br)c1 | 20.4 µg/mL (≈ 71.8 µM) |
| COc1ccccc1NC(=O)C1CCCN1C(=O)NC1CCCCC1 (stereo not given) | 42.4 µg/mL (≈ 123 µM) |
| Cn1c(=O)c([N+](=O)[O-])c(-n2ccnc2)c2ccccc21 | 37.4 µg/mL (≈ 138 µM) |
| CC(=O)Nc1ccc(NC(=O)Nc2cccc3ccccc23)cc1 | 1.1 µg/mL (≈ 3.44 µM) |
| O=S(=O)(c1ccc(-c2ccno2)s1)N1CCCCC1 | 8.1 µg/mL (≈ 27.1 µM) |
| CCOC(=O)c1c(O)cc(C)[nH]c1=O | > 29.6 µg/mL |
| COc1ccc(S(=O)(=O)NCCOc2ccccc2)cc1F | 2.4 µg/mL (≈ 7.38 µM) |
| O=[N+]([O-])c1ccc(C(O)CSC(=S)N2CCCCC2)cc1 (stereo not given) | 2.6 µg/mL (≈ 7.96 µM) |
| CC(=O)Nc1ccc(NC(=O)COC(=O)c2cnccn2)cc1 | > 47.1 µg/mL |
| Cc1cccc(NC(=O)CCS(=O)(=O)c2ccc(Cl)cc2)c1 | 5.5 µg/mL (≈ 16.3 µM) |
| Cc1cccc(C)c1NC(=S)NC(C)(C)CO | > 37.9 µg/mL |
| Cc1cccc(NC(=S)N(C)C2CCCCC2)c1 | 30.1 µg/mL (≈ 115 µM) |
| O=C(CCl)c1cc2c3c(c1)CC(=O)N3CCC2 | > 37.5 µg/mL |
| O=C(CN1CCN(c2ccccc2F)CC1)c1ccc(O)c(O)c1 | 47.6 µg/mL (≈ 144 µM) |
| S=C(NCCc1ccccc1)N1CCN(C2CCCCC2)CC1 | 16.6 µg/mL (≈ 50.1 µM) |
| CC1CCN(CC(O)COc2ccc(C(=O)c3ccccc3)cc2)CC1 (stereo not given) | > 53 µg/mL |
| CC(=O)c1c(C)[nH]c(C(=O)COC(=O)C2(C)CC2(Cl)Cl)c1C (stereo not given) | 11.9 µg/mL (≈ 34.4 µM) |
| CCOc1ccccc1N1CN(C2CCCCC2)CNC1=S | > 47.9 µg/mL |

| Structure (SMILES) | solubility kinetic |
| --- | --- |
| O=C(CNC(c1ccccc1)c1ccccc1)Nc1ccccc1F | < 0.4 µg/mL |
| C=CCSC1=NN2CCS(=O)(=O)N=C2S1 | > 39.5 µg/mL |
| O=C1C(Cc2ccc(O)cc2)NC(=S)N1C1CCCCC1 (stereo not given) | 44.9 µg/mL (≈ 147 µM) |
| CCNC(=O)NNC(=O)C1CC(c2cccnc2)=NO1 (stereo not given) | > 41.6 µg/mL |
| O=c1cc(CSc2ccccc2)[nH]c2ccccc12 | 39.7 µg/mL (≈ 148 µM) |
| CCCn1c(=S)[nH]c2ccc(C(F)(F)F)cc21 | 20.7 µg/mL (≈ 79.5 µM) |
| COC(=O)C[n+]1cccc2ccccc21.[Cl-] | > 35.7 µg/mL |
| COc1ccccc1NCC(=O)c1ccc(Cl)cc1 | 4.7 µg/mL (≈ 17 µM) |
| Cc1ccc(N2CC(C(=O)NC3CC3)CC2=O)cc1Cl (stereo not given) | > 43.9 µg/mL |
| O=c1[nH]c(-[n+]2ccccc2)c(/C=N/N=C(\[O-])c2ccccc2)s1 | > 48.7 µg/mL |
| CC1CCCC(C)N1C(=O)COC(=O)CNC(=O)c1ccccc1 (stereo not given) | > 49.9 µg/mL |
| COc1ccc(NC(=O)c2cnc(SC)nc2)cc1 | 8.4 µg/mL (≈ 30.5 µM) |
| Cc1ccc2c(c1)/C(=C/c1ccccc1)C(=O)N2 | 2.3 µg/mL (≈ 9.78 µM) |
| O=S(=O)(c1cc(F)ccc1F)N1CCN(c2ncccn2)CC1 | 46.9 µg/mL (≈ 138 µM) |
| C=CCNC(=O)NC(=O)CSc1nnc(C(F)(F)F)n1C | > 48.5 µg/mL |
| CC1CCCC(C)N1C(=O)COC(=O)CCC(=O)c1cccs1 (stereo not given) | > 50.6 µg/mL |
| O=C(O)c1ccc(Cl)c(S(=O)(=O)Nc2ccc(S(=O)(=O)N3CCCC3)cc2)c1 | > 66.7 µg/mL |
| CSc1ccccc1C(=O)C1CCCN(Cc2ccncc2)C1 (stereo not given) | 41.4 µg/mL (≈ 127 µM) |
| COc1ccccc1/C=C/C(=O)OCC(=O)N1CCCCC1 | > 45.5 µg/mL |
| Cc1cc(=O)n(C(C)(C)C)c(=O)n1Cc1ccccc1 | > 40.9 µg/mL |
| CCCC(=O)Nc1sc(C)c(C)c1C#N | 13.6 µg/mL (≈ 61.2 µM) |

Now from value to compound:

| solubility kinetic | Structure (SMILES) |
| --- | --- |
| 43.1 µg/mL (≈ 131 µM) | CC1CN(C(=O)COC(=O)c2ccc(F)cc2Cl)CC(C)O1 (stereo not given) |
| 0.8 µg/mL (≈ 2.45 µM) | CCn1c(SCc2cccc(OC)c2)nc2ccccc2c1=O |
| 1.1 µg/mL (≈ 3.26 µM) | Cc1cccc(OCCOC(=O)c2c(-c3ccccc3)noc2C)c1 |
| > 47.5 µg/mL | Cc1ccc(OCC(=O)NCCCNC(=O)c2ccco2)cc1 |
| 44.5 µg/mL (≈ 138 µM) | CCCS(=O)(=O)Nc1ccc(-c2cn3c(n2)SCC3)cc1 |
| 17.8 µg/mL (≈ 57.2 µM) | CCCNC(=O)c1csc(Nc2cccc3ccccc23)n1 |
| 53.2 µg/mL (≈ 150 µM) | O=C(NCCc1ccccc1)c1cc([N+](=O)[O-])ccc1N1CCOCC1 |
| < 0.4 µg/mL | COC(=O)c1cc(Nc2cc(C)c3ccc(O)cc3n2)cc(C(=O)OC)c1 |
| 25.1 µg/mL (≈ 53 µM) | Cc1noc(C)c1COc1ccc(C(=O)N2CCN(S(=O)(=O)c3cccc(F)c3)CC2)cc1 |
| > 39.5 µg/mL | COc1ccc(NC(=O)C2CCOC(C)(C)C2)cc1 (stereo not given) |
| > 45 µg/mL | Cc1ccc(C)c(NC(=O)COC(=O)c2ccc[n+]([O-])c2)c1 |
| 4.1 µg/mL (≈ 12.1 µM) | CCCn1c(=O)c(C(=O)Nc2ncccc2O)c(O)c2ccccc21 |
| 2.2 µg/mL (≈ 5.8 µM) | CC(=O)Nc1ccc(NC(=O)c2ccc(OCc3c(C)noc3C)cc2)cc1 |
| 5.5 µg/mL (≈ 15.5 µM) | Cc1cccc(C(=O)N[C@H](C(=O)Nc2ccc3c(c2)OCO3)C(C)C)c1 |
| 7.7 µg/mL (≈ 22.9 µM) | Cc1nc2c3cc(Cl)ccc3n(CCN3CCOCC3)c2s1 |
| > 36 µg/mL | CCC(CC)C(=O)NCc1ccc(Cl)cc1 |
| 7.6 µg/mL (≈ 30.7 µM) | CCOc1ccc(Nc2cc(=O)[nH]c(=O)[nH]2)cc1 |
| 0.8 µg/mL (≈ 2.97 µM) | C=C1CCc2c([nH]c3ccc(OCC(C)C)cc23)C1=O |
| > 58.8 µg/mL | CSCCC(NC(=O)c1ccccc1Cl)C(=O)NCCc1ccccn1 (stereo not given) |
| 39.7 µg/mL (≈ 125 µM) | Cc1cc(C(=O)NCC(c2ccco2)N(C)C)ccc1[N+](=O)[O-] (stereo not given) |
| > 42.9 µg/mL | COc1ccc(C(C)NC(=O)c2ccncc2)cc1OC (stereo not given) |

| solubility kinetic | Structure (SMILES) |
| --- | --- |
| 2.5 µg/mL (≈ 8.03 µM) | N#Cc1nc(-c2ccc(F)cc2)oc1NCCCn1ccnc1 |
| > 35.4 µg/mL | COc1ccc(NC(=O)N2CCOCC2)cc1 |
| > 49.9 µg/mL | CCC(C)NC(=O)COCc1cc(-c2ccc3c(c2)OCO3)on1 (stereo not given) |
| 43.6 µg/mL (≈ 137 µM) | O=C(NCC(c1cccs1)N1CCOCC1)c1cccnc1 (stereo not given) |
| > 64.9 µg/mL | Cc1ccc(S(=O)(=O)N2CCOCC2)cc1NC(=O)COC(=O)Cc1ccccc1 |
| 2.8 µg/mL (≈ 7.03 µM) | CNS(=O)(=O)c1cccc(C(=O)OCC(=O)Nc2ccc3ccccc3c2)c1 |
| > 37.9 µg/mL | CC(CN1CCCCC1)NC(=O)c1cccs1 (stereo not given) |
| 33.3 µg/mL (≈ 136 µM) | CC(C)NC(=O)C(=O)c1cn(C)c2ccccc12 |
| 5.3 µg/mL (≈ 9.55 µM) | COc1cc(/C=C/C(=O)OCC(=O)Nc2cc(S(=O)(=O)N3CCOCC3)ccc2Cl)cc(OC)c1OC |
| > 46.8 µg/mL | O=C(CCc1nc(-c2ccccc2F)no1)Nc1cccnc1 |
| 2.6 µg/mL (≈ 7.8 µM) | CCOC(=O)c1c2c3c(cccc3n(C)c1=O)C(=O)c1ccccc1-2 |
| 3.7 µg/mL (≈ 12.2 µM) | Cc1ccnc(NC(=O)CCC(=O)c2cc(C)sc2C)c1 |
| > 49.4 µg/mL | O=C(NCC1CCCO1)c1cccnc1NCc1ccc(F)cc1 (stereo not given) |
| < 0.4 µg/mL | Cc1ccc(NC(=O)c2ccc(OCc3c(C)noc3C)cc2)cc1 |
| 34.6 µg/mL (≈ 97.6 µM) | COCCn1c(N)c(C(=S)NC(=O)c2cccs2)c(=O)[nH]c1=O |
| 41.7 µg/mL (≈ 134 µM) | Cc1ccccc1OCC(O)CN1C(=O)c2ccccc2C1=O (stereo not given) |
| 32.4 µg/mL (≈ 139 µM) | CCOC(=O)c1c(C)nc2cc(C)cc(C)n12 |
| 40.3 µg/mL (≈ 147 µM) | CNC(=O)c1ccccc1Sc1ccccc1CO |
| > 43.7 µg/mL | CCc1cccc(C)c1NC(=O)CSc1nnc(C)o1 |
| > 52.1 µg/mL | CC(C(=O)N1CCN=C1c1ccccc1)N1C(=O)c2ccccc2C1=O (stereo not given) |
| 0.6 µg/mL (≈ 1.96 µM) | CCOc1ncccc1C(=O)Nc1nc(C(C)(C)C)cs1 |
